Experimental data as given in the supplement of paper PMC10307832.

Columns and labels:
Assay in all cases: relative viability (nuclei count vs DMSO), 5 days (fraction); higher = more cells survive
Sulindac + Lapatinib = compound: CC1=C(CC(=O)O)c2cc(F)ccc2/C1=C\c1ccc([S+](C)[O-])cc1 [Sulindac] + CS(=O)(=O)CCNCc1ccc(-c2ccc3ncnc(Nc4ccc(OCc5cccc(F)c5)c(Cl)c4)c3c2)o1 [Lapatinib] (partner 2 µM)
Summary of the method: (§1)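 For relative viability, nuclei counts in treated wells were divided by those in vehicle wells. Lung cancer cell lines had been pin-tool dosed in 1536-well plates the day after seeding and cultured for 5 days, then fixed and stained in one step (final 0.05% Triton X-100, 1% formaldehyde, 1 ug/ml Hoechst) and imaged at 4×. Doses were one drug alone or a fixed anchor-drug dose plus five library-drug doses (not always all listed) in √10 steps, and values are duplicate-plate medians.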

[1] = compound: O=c1[nH]cc(F)c(=O)[nH]1 [5-Fluorouracil] + CS(=O)(=O)N1CCN(Cc2cc3nc(-c4cccc5[nH]ncc45)nc(N4CCOCC4)c3s2)CC1 [Pictilisib] (partner 1 µM)
Summary of the method: as §1

Sulindac + Pictilisib = compound: CC1=C(CC(=O)O)c2cc(F)ccc2/C1=C\c1ccc([S+](C)[O-])cc1 [Sulindac] + CS(=O)(=O)N1CCN(Cc2cc3nc(-c4cccc5[nH]ncc45)nc(N4CCOCC4)c3s2)CC1 [Pictilisib] (partner 1 µM)
Summary of the method: as §1

Sulindac + Foretinib = compound: CC1=C(CC(=O)O)c2cc(F)ccc2/C1=C\c1ccc([S+](C)[O-])cc1 [Sulindac] + COc1cc2c(Oc3ccc(NC(=O)C4(C(=O)Nc5ccc(F)cc5)CC4)cc3F)ccnc2cc1OCCCN1CCOCC1 [Foretinib] (partner 0.25 µM)
Summary of the method: as §1

Cell Line: UMC-11
- relative viability (Sulindac + Lapatinib; first compound 0.08 µM): 1.16
- relative viability (Sulindac + Lapatinib; first compound 0.253 µM): 1.12
- relative viability (Sulindac + Lapatinib; first compound 0.8 µM): 0.758
- relative viability (Sulindac + Lapatinib; first compound 2.53 µM): 0.946
- relative viability (Sulindac + Lapatinib; first compound 8 µM): 1.15
- relative viability ([1]; first compound 0.02 µM): 0.834
- relative viability ([1]; first compound 0.2 µM): 0.601
- relative viability ([1]; first compound 0.6325 µM): 0.397
- relative viability ([1]; first compound 2 µM): 0.36
- relative viability (Sulindac + Pictilisib; first compound 0.08 µM): 1.18
- relative viability (Sulindac + Pictilisib; first compound 0.253 µM): 0.816
- relative viability (Sulindac + Pictilisib; first compound 0.8 µM): 0.704
- relative viability (Sulindac + Pictilisib; first compound 2.53 µM): 0.667
- relative viability (Sulindac + Pictilisib; first compound 8 µM): 0.793
- relative viability (Sulindac + Foretinib; first compound 0.08 µM): 1.33
- relative viability (Sulindac + Foretinib; first compound 0.253 µM): 1.12
- relative viability (Sulindac + Foretinib; first compound 0.8 µM): 0.739
- relative viability (Sulindac + Foretinib; first compound 2.53 µM): 0.986
- relative viability (Sulindac + Foretinib; first compound 8 µM): 1.12
